Like-named read-outs stand apart in the source and are kept apart here.
Columns and labels:
systolic blood pressure = assay: Antihypertensive action, spontaneously hypertensive rats (SHR), oral; format: in vivo; conditions: for Lowering of systolic blood pressure, R.A. (relative activity; verapamil = 1.00) / ED20: SHR, peroral; for ED20: Rattus norvegicus, po, read-out: Lowering of systolic blood pressure, ED 20%; for Antihypertensive action (in words): after 24 hours, SH rats, verapamil at 100 mg/kg
Protocol: The substances were administered orally to male spontaneously hypertensive rats (SHR) of the Okamoto strain (weight: 300-400 g). The systolic blood pressure was determined non-operatively on the tails of the rats by piezo-crystal measurements before and 2, 6, 24 and, where relevant, 30 hours after administration.
The dose which reduced the systolic pressure by 20%, taking into consideration the values from untreated control animals, was taken as the ED 20%.

[1] = tested on: collagen-induced platelet aggregation; assay: Platelet aggregation-inhibiting action after oral administration to rats; conditions: Rattus norvegicus, 1 h, read-out: Inhibition of aggregation, ED 33%
Protocol: The substances were administered orally to male Sprague-Dawley rats (200-250 g). 1 hour after administration, samples of blood were taken under ether anesthetic, and platelet-rich plasma was obtained by centrifugation (300 g, 10 minutes at 4° C.). The platelet aggregation was measured photometrically, with the addition of MgCl2 and (end concentration of 10 mmoles/l) and Collagen Stago (end concentration of 0.02 mg/ml), in a Mark 3 Born Aggregometer. The maximum change in extinction/second was used as a measure of the aggregation.

[2] = tested on: passive cutaneous anaphylaxis (PCA); assay: Antiallergic action, passive cutaneous anaphylaxis (PCA) in rats, oral; format: in vivo, rat (male); conditions: for % inhibition (diameter of colored spot, PCA): 21.5 mg/kg oral
Protocol: The model of passive cutaneous anaphylaxis (PCA) was used for this test.
Anesthetized male rats (100-140 g) were sensitized by intradermal injection (shaven dorsal skin) of 0.1 ml of an ovalbumin antiserum. After a sensitizing period of about 48 hours, they were treated with the test substances (oral administration). After various latency periods (2, 6, 12 and 24 hours), the experimental animals were injected intravenously with an antigen/Evans blue solution. The animals were sacrificed in each case 30 minutes after the injection, and the dorsal skin was removed and the circular blue stain on the inner surface measured.
The antiallergic action was quoted as the relative inhibition (Δ%) of the diameter of the colored spot.

[3] = tested on: creatine phosphate concentration in the myocardium; assay: Cardio-protective action against hypoxic cardiac metabolism disorders, oral, rats; format: in vivo, rat (Wistar); conditions: compounds 2-40 mg/kg, verapamil up to 40 mg/kg
Protocol: A drastic depletion of energy-rich phosphates in the mycocardium of anesthetized rats (Wistar, weight: 250-350 g, anesthetic: thiobutabarbital 100 mg/kg i.p.) was produced by standardized respiration with an oxygen-deficient mixture (2% of O2).
The test substances were administered to the still conscious animals 6 hours before the oxygen-deficient respiration. The percentage difference between the creatine phosphate concentration in the myocardium of animals pretreated with the test substance and that of the untreated hypoxic control animals was determined.

Row | Compound | Lowering of systolic blood pressure, R.A. (relative activity; verapamil = 1.00) (systolic blood pressure; 2 hrs) | Lowering of systolic blood pressure, R.A. (relative activity; verapamil = 1.00) (systolic blood pressure; 6 hrs) | ED20 (systolic blood pressure; 2 hrs) | ED20 (systolic blood pressure; 6 hrs) | ED20 (systolic blood pressure; 24 hrs) | ED33 [1] | other results
1 | CCCCCCCCCCCC(C#N)(CCCN(C)CCc1cccc(OC)c1)c1cccc(OC)c1 (stereo not drawn) [Example 25, 1,7-bis-(3-Methoxyphenyl)-3-methylaza-7-cyano-octadecane] | 3.41 | 2.02 | 6.8 mg/kg | 10.2 mg/kg | 46.4 mg/kg |  | 
2 | CCCCCCCCCCCCC(C#N)(CCCNCCc1cccc(OC)c1)c1cccc(OC)c1 (stereo not drawn) [Example 75, 1,7-bis-(3-Methoxyphenyl)-3-aza-7-cyano-nonadecane] |  |  |  |  |  | 90.2 mg/kg | 
3 | CCCCCCCCCCCCC(C#N)(CCCN(C)CCc1cccc(OC)c1)c1cccc(OC)c1 (stereo not drawn) [Example 3, 1,7-bis-(3-Methoxyphenyl)-3-methylaza-7-cyano-nonadecane] | 0.93 | 1.46 | 24.9 mg/kg | 14.1 mg/kg | 18.7 mg/kg | 9.6 mg/kg | % inhibition (diameter of colored spot, PCA) ([2]; latency period 2 hours): 15%; % inhibition (diameter of colored spot, PCA) ([2]; latency period 6 hours): 40%; % inhibition (diameter of colored spot, PCA) ([2]; latency period 12 hours): 83%; % inhibition (diameter of colored spot, PCA) ([2]; latency period 24 hours): 68%; Antiallergic action (in words) ([2]; after oral administration): long-lasting antiallergic action; Antiallergic action compared with verapamil (in words) ([2]; latency periods of 12 and 24 hours, oral): substantially more powerful action; Cardio-protective action (in words) [3]: particularly powerful action; Antihypertensive action (in words) (systolic blood pressure): still have an antihypertensive action
4 | CCCCCCCCCCCCCCCC(C#N)(CCCN(C)CCc1cccc(OC)c1)c1cccc(OC)c1 (stereo not drawn) [Example 6, 1,7-bis-(3-Methoxyphenyl)-3-methylaza-7-cyano-docosane] |  |  |  |  |  | 49 mg/kg | 
5 | CCCCCCCCCCCCC(C#N)(CCCN(C)CCc1cc(OC)cc(OC)c1)c1cccc(OCC)c1 (stereo not drawn) [Example 70, 1-(3,5-Dimethoxyphenyl)-3-methylaza-7-cyano-7-(3-ethoxyphenyl)-nonadecane] |  |  |  |  |  | 119 mg/kg | 
6 | CCCCCCCCCCCCC(C#N)(CCCN(C)CCc1ccc(SCC)cc1)c1cccc(OC)c1 (stereo not drawn) [Example 42, 1-(4-Ethylmercaptophenyl)-3-methylaza-7-cyano-7-(3-methoxyphenyl)-nonadecane] | 2.25 |  | 0.3 mg/kg |  | 58.3 mg/kg |  | 
7 | 1-(3,5-Diethoxyphenyl)-3-methylaza-7-cyano-7-(3-ethoxyphenyl)-docosane [Example 68] |  |  |  |  |  |  | Cardio-protective action (in words) [3]: particularly powerful action
8 | COc1ccc(CCN(C)CCCC(C#N)(c2ccc(OC)c(OC)c2)C(C)C)cc1OC (stereo not drawn) [Verapamil, 1,7-bis-(3,4-dimethoxyphenyl)-3-methylaza-7-cyano-8-methyl-nonane, reference compound] |  |  | 23.2 mg/kg | 20.6 mg/kg |  |  | % inhibition (diameter of colored spot, PCA) ([2]; latency period 2 hours): 53%; % inhibition (diameter of colored spot, PCA) ([2]; latency period 6 hours): 50%; % inhibition (diameter of colored spot, PCA) ([2]; latency period 12 hours): 33%; % inhibition (diameter of colored spot, PCA) ([2]; latency period 24 hours): 31%; Antihypertensive action (in words) (systolic blood pressure): ineffective
9 | CCCCCCCCCCCCC(C#N)(CCCN(C)CCc1cccc(OC)c1)c1ccc(OC)c(OC)c1 (stereo not drawn) [Example 19, 1-(3-Methoxyphenyl)-3-methylaza-7-cyano-7-(3,4-dimethoxyphenyl)-nonadecane] | 3.09 | 1.04 | 7.5 mg/kg | 19.8 mg/kg | 46.4 mg/kg |  | 
10 | CCCCCCCCCCCCC(C#N)(CCCN(C)CCc1ccccc1)c1ccccc1 (stereo not drawn) [Example 5, 1,7-Diphenyl-3-methylaza-7-cyano-nonadecane] |  |  |  |  |  |  | Cardio-protective action (in words) [3]: particularly powerful action
11 | CCCCCCCCCCCCC(C#N)(CCCN(C)CCc1cccc(OC)c1)c1cc(OC)c(OC)c(OC)c1 (stereo not drawn) [Example 20, 1-(3-Methoxyphenyl)-3-methylaza-7-cyano-7-(3,4,5-trimethoxyphenyl)-nonadecane] | 6.27 | 3.12 | 3.7 mg/kg | 6.6 mg/kg | 12.5 mg/kg |  | Antihypertensive action (in words) (systolic blood pressure): still have an antihypertensive action
